“Also recorded” adds a separate entry of the source.
Tests used:
[1] = Permeation through human skin from the preparation of Example 1; assay type: in vitro ADME
Experimental: (§1) 200 mg of the preparation made according to Example 1 were applied to bare mouse skin, which were fixed in modified Franz permeation cells as a permeation membrane. The results for the average permeation values for testosterone and drospirenone in μg/cm^2 versus time after application are shown in FIG. 1. The average values are the average of seven experimental runs. The mouse skin used was hairless mouse skin, HsdCpb NMRI-nu/nu, Harlan Bioservice, Walsrode.
(§2) Acceptable Medium for the Franz Cells:
(§3) At 3, 6, 9, 12, 15 and 18 hours samples of 100 μl were removed by an automatic sampling system from the acceptor medium of the Franz cells and injected into an HPLC automatic analyzer.
The preparation from example 1 was tested on human skin (female belly skin from cosmetic reduction, dermatomized at a layer thickness of about 450 μm).
The skin permeation values or mass transport amount for drospirenone and testosterone as a function of time after application of the preparation to the skin are shown in FIG. 2. The open squares indicate the measured permeation values for testosterone in […]. The open circles indicate the permeation values for drospirenone. The vertical lines on the circles and squares are error bars indicating the experimental error.

[2] = Permeation of bare mouse skin in modified Franz permeation cells; assay type: in vitro ADME; details: aqueous ethanolic vehicle (preparation of Example 1, 200 mg), FIG. 1, average of seven runs
Experimental: as §1, §2, §3
The filled-in circles indicate the measured permeation values for testosterone in FIG. 1. The filled-in squares indicate the permeation values for drospirenone. The vertical lines on the circles and squares are error bars indicating the experimental error.

Compound	Permeation values relative to those of testosterone ([1]; female, human)	Mean cumulative Transport ([1]; female, human, 0 h) [μg/cm^2]	Mean cumulative Transport ([1]; female, human, 3 h) [μg/cm^2]	Mean cumulative Transport ([1]; female, human, 7 h) [μg/cm^2]	Mean cumulative Transport ([1]; female, human, 10 h) [μg/cm^2]	Mean cumulative Transport ([1]; female, human, 24 h) [μg/cm^2]	Mean cumulative Transport ([1]; female, human, 30 h) [μg/cm^2]	Mean cumulative Transport ([1]; female, human, 48 h) [μg/cm^2]	Permeation of mouse skin in vitro compared with testosterone [2]	Mean cumulative Transport ([1]; human skin, preparation of Example 1, time 0 h) [μg/cm^2]	Mean cumulative Transport ([1]; human skin, preparation of Example 1, time 3 h) [μg/cm^2]	Mean cumulative Transport ([1]; human skin, preparation of Example 1, time 7 h) [μg/cm^2]	Mean cumulative Transport ([1]; human skin, preparation of Example 1, time 10 h) [μg/cm^2]	Mean cumulative Transport ([1]; human skin, preparation of Example 1, time 24 h) [μg/cm^2]	Mean cumulative Transport ([1]; human skin, preparation of Example 1, time 30 h) [μg/cm^2]	Mean cumulative Transport ([1]; human skin, preparation of Example 1, time 48 h) [μg/cm^2]
C[C@]12CCC(=O)C=C1[C@@H]1C[C@@H]1[C@H]1[C@@H]3[C@@H]4C[C@@H]4[C@@]4(CCC(=O)O4)[C@@]3(C)CC[C@@H]12 [Drospirenone, drospirenone]	about 40%	0.00	0.87	2.04	2.86	8.67	12.13	19.23	approximately the same good extent as testosterone; also recorded: permeation values for testosterone are larger than those for drospirenone							
C[C@]12CC[C@H]3[C@@H](CCC4=CC(=O)CC[C@@]43C)[C@@H]1CC[C@@H]2O [Testosterone]										0.00	3.62	7.72	10.70	26.57	33.31	44.35

Reference: patent US20050222106A1, “Drospirenone-containing preparations for transdermal use” (priority 2004, published 2005)
